Measurements reported in patent publication US8722887B2, “Sulfonylpyrazole and sulfonylpyrazoline carboxamidine derivatives as 5-HT6 antagonists” (Abbvie Bahamas, Ltd., priority 2006, dated 2014).
Like-named read-outs stand apart in the source and are kept apart here.

Tests used:
5-HT6 receptor [1] = target: T1, 5-HT6 receptor (Homo sapiens, UniProt P50406); experiment: In vitro affinity for human 5-HT6 receptors, [3H]-LSD binding in CHO cell membranes; parameters: host or cells: CHO/Gα16/mtAEQ/h5HT6-A1 (CHO AequoScreen recombinant cell line)
5-HT6 receptor [2] = target: T1, 5-HT6 receptor; experiment: In vitro functional activity (antagonism) on human 5-HT6 receptors, CHO-human-5HT6-Aequorin assay; assay type: cell-based; parameters: host or cells: CHO/Gα16/mtAEQ/h5HT6-A1 (CHO AequoScreen recombinant cell line)
[3] = [3H]-LSD 5.0 nM, membranes of CHO cells transfected with human 5-HT6, read-out: 5-HT6 pKi (converted)
[4] = antagonism of 10^-8 M α-methylserotonin induced luminescence, CHO-human-5HT6-Aequorin cells, read-out: 5-HT6 pA2 (converted)
[5] = antagonism of 10^-8 M α-methylserotonin induced luminescence, CHO-human-5HT6-Aequorin cells

T1 sequence (P50406 whole entry): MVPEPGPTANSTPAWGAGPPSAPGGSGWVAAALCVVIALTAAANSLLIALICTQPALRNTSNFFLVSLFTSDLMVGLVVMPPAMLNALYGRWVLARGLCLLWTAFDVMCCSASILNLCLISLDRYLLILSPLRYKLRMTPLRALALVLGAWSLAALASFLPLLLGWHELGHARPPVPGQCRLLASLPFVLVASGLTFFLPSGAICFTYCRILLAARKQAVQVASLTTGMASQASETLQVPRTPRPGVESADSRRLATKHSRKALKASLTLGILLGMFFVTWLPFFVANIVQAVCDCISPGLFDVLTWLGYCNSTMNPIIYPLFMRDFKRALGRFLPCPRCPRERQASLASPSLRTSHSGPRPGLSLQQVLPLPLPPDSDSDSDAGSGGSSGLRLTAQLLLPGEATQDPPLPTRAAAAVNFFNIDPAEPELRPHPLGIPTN

melting point [°C] | Ki (5-HT6 receptor [1]; [3]) [µM] | Kb (5-HT6 receptor [2]; [4]) [µM] | Compound | other results
94 to 95 |  |  | CCC1C=NN(/C(=N/S(=O)(=O)c2ccccc2Cl)N(C)C)C1 (stereo not drawn) [compound 5] | 
155 to 156 |  |  | CCC1CN(/C(=N/S(=O)(=O)c2cccc(Cl)c2)NC)N=C1C (stereo not drawn) [compound 109] | 
 | 0.0158 | 0.0126 | CCN/C(=N\S(=O)(=O)c1cccc(Cl)c1)N1CC(C)(C)C=N1 [compound 33, 3-Chloro-N-[(4,4-dimethyl-4,5-dihydro-pyrazol-1-yl)-ethylamino-methylene]-benzenesulfonamide] | 
 | 0.158 |  | CCN/C(=N\S(=O)(=O)c1cccc(Cl)c1)N1N=CC(CC)C1c1ccccc1 (stereo not drawn) [compound 153] | 
 | 0.126 |  | CCN/C(=N\S(=O)(=O)c1cccc(Cl)c1)N1N=CC(CC)C1c1ccccc1 (single isomer, unassigned) [trans-(+)-153] | 
115 to 116 |  |  | CCC1C=NN(/C(N)=N/S(=O)(=O)c2ccc(Cl)s2)C1 (stereo not drawn) [compound 105] | 
 | 0.501 |  | CCN/C(=N\S(=O)(=O)c1cccc(Cl)c1)N1N=CCC1c1ccncc1 (stereo not drawn) [compound 148] | 5-HT6 pA2 (5-HT6 receptor [2]; [5]): 6.9
 | 0.2 | 0.0631 | CCN/C(=N\S(=O)(=O)c1ccc(Cl)s1)N1CC(C)(C)C(C)=N1 [compound 112] | 
 | 0.316 |  | CCN/C(=N\S(=O)(=O)c1cccc(Cl)c1)N1CC(CCC(F)(F)F)(CCC(F)(F)F)C=N1 [compound 168] | 
 | 0.0794 | 0.2 | CCC1C=NN(/C(=N/S(=O)(=O)c2ccccc2Cl)NCc2ccccc2)C1 (stereo not drawn) [compound 13] | 
 | 0.0251 | 0.02 | CCN/C(=N\S(=O)(=O)c1ccc(Cl)s1)N1CC2(C=N1)CCOCC2 [compound 165] | 
 | 0.2 | 0.501 | CCN/C(=N\S(=O)(=O)c1cccc(Cl)c1)N1N=C(C(C)C)CC1c1ccccc1 (stereo not drawn) [compound 151] | 
 | 0.0316 | 0.0126 | CCN/C(=N\S(=O)(=O)c1cccc(Cl)c1)N1N=CCC1c1cccnc1 (stereo not drawn) [compound 145] | 
169 to 171 |  |  | CC1=NN(/C(N)=N/S(=O)(=O)c2c(Cl)nc3sccn23)CC1(C)C [compound 117] | 
146 to 147 |  |  | N/C(=N\S(=O)(=O)c1cccc(Cl)c1)N1CC2(C=N1)CCCC2 [compound 97] | 
 |  | 0.00126 | CCN/C(=N\S(=O)(=O)c1c(Cl)nc2sccn12)N1CC(CC)C=N1 (single isomer, unassigned; (+)) [(+)-41] | 
161 to 163 |  |  | CCC1C=NN(/C(N)=N/S(=O)(=O)c2ccccc2Cl)C1 (stereo not drawn) [compound 3] | 
 | 0.00501 | 0.000794 | CCN/C(=N\S(=O)(=O)c1cc2ccccc2s1)N1CC(CC)C=N1 (stereo not drawn) [compound 89] | 
 | 0.01 | 0.00398 | CCN/C(=N\S(=O)(=O)c1cccc(Cl)c1)N1N=CC2CN(C)CCC21 (stereo not drawn) [compound 154] | 
84 to 86 |  |  | CCN/C(=N\S(=O)(=O)c1ccc(Cl)cc1)N1CC(CC)C=N1 (stereo not drawn) | 
79 to 80 |  |  | CCN/C(=N\S(=O)(=O)c1cccc2ccccc12)N1CC(CC)C=N1 (stereo not drawn) | 
 | 0.0126 | 0.0316 | CCN/C(=N\S(=O)(=O)c1cccc(Cl)c1)N1N=CCC1c1ccsc1 (stereo not drawn) [compound 149] | 
 |  |  | CCC1C=NN(/C(=N/S(=O)(=O)c2ccccc2Cl)N(CC)CC)C1 (stereo not drawn) [compound 1] | Kb (5-HT6 receptor [2]): 0.316 µM

melting point [°C] | Ki (5-HT6 receptor [1]; [3]) [µM] | Kb (5-HT6 receptor [2]; [4]) [µM] | Compound | other results
 | 0.398 |  | CCN/C(=N\S(=O)(=O)c1cccc(Cl)c1)N1N=CC(CC)C1c1ccccc1 (single isomer, unassigned) [trans-(−)-153] | 
 | 0.0794 | 0.1 | N/C(=N\S(=O)(=O)c1cccc(Cl)c1)N1CC2(C=N1)CCOCC2 [compound 161] | 
 | 0.02 | 0.0398 | CCN/C(=N\S(=O)(=O)c1cccc(Cl)c1)N1N=CCC1c1ccoc1 (stereo not drawn) [compound 146] | 
 | 0.0501 | 0.0398 | N/C(=N\S(=O)(=O)c1c(Cl)nc2sccn12)N1CC2(C=N1)CCOCC2 [compound 164] | 
 | 0.0794 | 0.0501 | CN/C(=N\S(=O)(=O)c1ccc(Cl)s1)N1CC(C)(C)C=N1 [compound 103] | 
 | 0.0631 | 0.0794 | CCN/C(=N\S(=O)(=O)c1cccc2nsnc12)N1CC(CC)C=N1 (stereo not drawn) [compound 78, Benzo[1,2,5]thiadiazole-4-sulfonic acid ethylamino-(4-ethyl-4,5-dihydro-pyrazol-1-yl)-methyleneamide] | 
43 to 45 |  |  | CCN/C(=N\S(=O)(=O)c1ccccc1)N1CC(CC)C=N1 (stereo not drawn) [compound 24] | 
 |  |  | CCN/C(=N\S(=O)(=O)c1ccccc1Cl)N1CCCC1 [reference compound] | Kb (5-HT6 receptor [2]): > 10 µM
122 to 125 |  |  | CCN/C(=N\S(=O)(=O)c1ccc(N)cc1)N1CC(CC)C=N1 (stereo not drawn) [compound 134] | 
 | 0.316 | 0.794 | CCN/C(=N\S(=O)(=O)c1cccc(Cl)c1)N1N=CCC1c1ccccn1 (stereo not drawn) [compound 147] | 
 | 0.1 |  | CCN/C(=N\S(=O)(=O)c1ccc(N(C)C)cc1)N1CC(CC)C=N1 (stereo not drawn) [compound 174] | 
 | 0.00794 |  | CCN/C(=N\S(=O)(=O)c1cccc(Cl)c1)N1N=CCC1c1ccco1 (stereo not drawn) [compound 144] | 5-HT6 pA2 (5-HT6 receptor [2]; [5]): 8.1
128 to 130 |  |  | CCC1C=NN(/C(=N/S(=O)(=O)c2ccccc2Cl)Nc2ccccc2)C1 (stereo not drawn) [compound 12] | 
 | 0.1 | 0.0794 | CN/C(=N\S(=O)(=O)c1ccc(Cl)s1)N1CC2(C=N1)CCOCC2 [compound 166] | 
 | 0.2 |  | CCN/C(=N\S(=O)(=O)c1cccc(Cl)c1)N1CC(c2ccccc2)C(C)=N1 (stereo not drawn) [compound 140] | 
60 to 61 |  |  | CCN/C(=N\S(=O)(=O)N(C)C)N1CC(CC)C=N1 (stereo not drawn) [compound 171] | 
 | 0.0794 | 0.0631 | CCN/C(=N\S(=O)(=O)/C=C/c1ccccc1)N1CC(CC)C=N1 (stereo not drawn) [compound 83] | 
146 to 147 |  |  | CCC1C=NN(/C(N)=N/S(=O)(=O)c2c(Cl)nc3sccn23)C1 (single isomer, unassigned; (+)) [(+)123] | 
 | 0.0631 | 0.0126 | CCN/C(=N\S(=O)(=O)c1c(Cl)nc2sccn12)N1CC2(C=N1)CCOCC2 [compound 162] | 
 | 0.251 | 0.316 | CCN/C(=N\S(=O)(=O)c1cccc(Cl)c1)N1CC(c2ccccc2)C=N1 (stereo not drawn) [compound 139] | 
162 to 164 |  |  | CC1(C)C=NN(/C(N)=N/S(=O)(=O)c2ccc(Cl)s2)C1 [compound 102] | 
149 to 150 |  |  | CN(C)/C(=N\S(=O)(=O)c1ccc(F)cc1)N1CCC(c2ccc(Cl)cc2)=N1 [compound 137] | 
 | 0.0501 |  | CCN/C(=N\S(=O)(=O)c1cccc(Cl)c1)N1N=CC(CC)C1c1ccccc1 (single isomer, unassigned) [cis(−)-153] | 

melting point [°C] | Ki (5-HT6 receptor [1]; [3]) [µM] | Kb (5-HT6 receptor [2]; [4]) [µM] | Compound | other results
131 to 138 |  |  | CCC1C=NN(/C(=N/S(=O)(=O)c2ccccc2Cl)NCC2CCNCC2)C1 (stereo not drawn) [compound 11] | 
131 to 133 |  |  | CCC1C=NN(/C(N)=N/S(=O)(=O)c2ccc(C)cc2)C1 (stereo not drawn) [compound 31] | 
 | 0.0631 | 0.0316 | N/C(=N\S(=O)(=O)c1ccc(Cl)s1)N1CC2(C=N1)CCOCC2 [compound 167] | 
188 to 189 |  |  | CN/C(=N\S(=O)(=O)c1ccc(F)cc1)N1CCC(c2ccc(Cl)cc2)=N1 | 
 | 0.00631 | 0.00794 | CCN/C(=N\S(=O)(=O)c1cccc(Cl)c1)N1CC2(C=N1)CCN(C)CC2 [compound 157] | 
 | 0.251 | 0.01 | CN/C(=N\S(=O)(=O)c1c(Cl)nc2sccn12)N1CC2(C=N1)CCOCC2 [compound 163] | 
 | 0.0316 | 0.0316 | CCN/C(=N\S(=O)(=O)c1cccc(Cl)c1)N1N=CCC1c1cccs1 (stereo not drawn) [compound 150] | 
174 to 177 |  |  | N/C(=N\S(=O)(=O)c1c(Cl)nc2sccn12)N1CC2(C=N1)CCCC2 [compound 131] | 
135 to 137 |  |  | CC1=NN(/C(N)=N/S(=O)(=O)c2cccc(Cl)c2)CC1(C)C [compound 115] | 
198 to 199 |  |  | CC1(C)C=NN(/C(N)=N/S(=O)(=O)c2c(Cl)nc3sccn23)C1 [compound 127] | 
 | 0.158 |  | CCN/C(=N\S(=O)(=O)c1cccc(Cl)c1)N1N=CC(C)C1c1ccccc1 (stereo not drawn) [compound 152] | 
121 to 123 |  |  | CCC1CN(/C(N)=N/S(=O)(=O)c2cccc(Cl)c2)N=C1C (stereo not drawn) [compound 113] | 
139 to 141 |  |  | CCN/C(=N\S(=O)(=O)c1c(Cl)nc2sccn12)N1CC(C)(C)C=N1 [compound 114] | 
 | 1.26 |  | CCN/C(=N\S(=O)(=O)c1cccc(Cl)c1)N1N=CC(CC)C1c1ccccc1 (single isomer, unassigned) [cis(+)-153] | 
155 to 156 |  |  | CCC1CN(/C(N)=N/S(=O)(=O)c2ccc(Cl)s2)N=C1C (stereo not drawn) [compound 121] | 
 | 0.0794 | 0.2 | CN/C(=N\S(=O)(=O)c1cccc(Cl)c1)N1CC2(C=N1)CCOCC2 [compound 160] | 
141 to 142 |  |  | CCC1C=NN(/C(N)=N/S(=O)(=O)c2cccc(Cl)c2)C1 (stereo not drawn) [compound 29] | 
 | 0.0501 | 0.00316 | CCN/C(=N\S(=O)(=O)c1ccccc1Cl)N1CC(CC)C=N1 (stereo not drawn) [compound 2, 2-Chloro-N-[ethylamino-(4-ethyl-4,5-dihydro-pyrazol-1-yl)-methylene]-benzenesulfon-amide] | 
 |  |  | CCN/C(=N\S(=O)(=O)c1cccc(Cl)c1)N1CCC(C)=N1 [compound 42] | Ki (5-HT6 receptor [1]; 5-HT6 pKi): 0.2 µM; 5-HT6 pA2 (5-HT6 receptor [2]; [5]): 6.9
 | 0.126 | 0.2 | CCN/C(=N\S(=O)(=O)c1cccs1)N1CC(CC)C=N1 (stereo not drawn) [compound 51] | 
 | 0.02 | 0.02 | CCN/C(=N\S(=O)(=O)c1cccc(Cl)c1)N1CCC=N1 [compound 28] | 5-HT6 pA2 (5-HT6 receptor [2]; [5]): 7.1
 | 0.316 |  | CCN/C(=N\S(=O)(=O)N(C)c1ccccc1)N1CC(CC)C=N1 (stereo not drawn) [compound 172] | 
